This is an account of results in US9481910B2, “Methods and compositions for the detection of drug resistant BRAF isoforms” (MEMORIAL SLOAN-KETTERING CANCER CENTER, priority 2011, dated 2016).

Entries after “also recorded” stand apart in the source; their conditions may differ.

In experiment [1] the test system is PLX4032-resistant SKMEL-239 clones. Nature of the experiment: Sensitivity of PLX4032-resistant SKMEL-239 clones to MEK inhibitor (5-day proliferation, pMEK/pERK dose-response). Format: cell-based, human. The following applies: all five resistant clones; slightly higher doses than in the parental cell line. How it is done:
(§1) For proliferation assays, cells were plated in 6-well plates, and 24 hours later were treated with varying concentrations of inhibitors, or vehicle control, as indicated. IC50 values were calculated using Graph Pad Prism v.5. For cell cycle and apoptosis studies, cells were seeded in 6-well dishes the day prior to drug treatment. For analysis, both adherent and floating cells were harvested and stained with ethidium bromide as described previously 21.

Another experiment concerns SKMEL-239 cells. In words: Cell cycle and cell death (sub-G1 peak by FACS) in SKMEL-239 parental cells and resistant clones. The format is cell-based, human. The method, then: as §1
Experiment [2] deals with T1, p61 BRAF(V600E) (Homo sapiens, UniProt P15056, DEL169-380/V600E). In words: ERK signaling in 293H cells ectopically expressing p61 BRAF(V600E). Format: cell-based. The following applies: 293H cells expressing p61 BRAF(V600E), 2 μM for 1 hour. How it is done: (§2) The BRAF inhibitor, PLX403219 (vemurafenib) was obtained from Plexxikon Inc. PD0325901 was synthesized in the MSKCC Organic Synthesis Core Facility. Flag-tagged BRAF constructs have been described previously4. All other plasmids were created using standard cloning methods, with pcDNA3.1 (Invitrogen) as a vector. Mutations were introduced using the site-directed Mutagenesis Kit (Stratagene). For transfection studies, cells were seeded on 35 mm or 100 mm plates and transfected the following day using Lipofectamine 2000 (Invitrogen). Cells were collected 24 hours later for subsequent analysis. cDNA Preparation and PCR.
T1 sequence (P15056 with tags, fused parts or gaps DEL169-380/V600E): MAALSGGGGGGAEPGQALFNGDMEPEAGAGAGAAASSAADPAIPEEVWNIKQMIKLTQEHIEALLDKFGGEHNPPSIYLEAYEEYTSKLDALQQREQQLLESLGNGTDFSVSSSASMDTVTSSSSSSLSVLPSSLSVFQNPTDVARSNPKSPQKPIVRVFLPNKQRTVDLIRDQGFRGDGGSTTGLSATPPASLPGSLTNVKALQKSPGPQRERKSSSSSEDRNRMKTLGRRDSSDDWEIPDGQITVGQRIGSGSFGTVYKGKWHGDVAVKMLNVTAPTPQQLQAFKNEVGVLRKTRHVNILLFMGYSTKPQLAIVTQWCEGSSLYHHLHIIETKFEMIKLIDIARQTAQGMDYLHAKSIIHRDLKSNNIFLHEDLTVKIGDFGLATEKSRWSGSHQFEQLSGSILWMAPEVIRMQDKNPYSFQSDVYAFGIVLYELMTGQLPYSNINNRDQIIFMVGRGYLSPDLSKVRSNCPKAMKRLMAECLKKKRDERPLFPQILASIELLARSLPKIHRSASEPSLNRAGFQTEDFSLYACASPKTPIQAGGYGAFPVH

For experiment [3], the target named is T1, p61 BRAF(V600E). In words: ERK signaling in SKMEL-239 or HT-29 cells ectopically expressing p61 BRAF(V600E). The format is cell-based. The conditions noted are these: 1 hour. How it is done: as §2
The target of experiment [4] is T1, p61 BRAF(V600E). Nature of the experiment: In vitro kinase assay of immunoprecipitated V5-tagged p61 BRAF(V600E), inactive MEK(K97R) as substrate. Format: biochemical. The conditions noted are these: 200 μM ATP, 30° C., 20 min. How it is done:
V5-tagged full length BRAF(V600E) or V5-tagged p61 BRAF(V600E) were ectopically expressed in 293H cells. 24 hours later, cells were harvested, lysed and BRAF was immunoprecipitated using a V5 antibody. […] Kinase activity was estimated by western blot for pMEK.
Immunoprecipitations and kinase assays. Cells were lysed in lysis buffer (50 mM Tris, pH7.5, 1% NP40, 150 mM NaCl, 10% glycerol, 1 mM EDTA) supplemented with protease and phosphatase inhibitor cocktail tablets (Roche). Immunoprecipitations were performed at 4° C. for 4 h, followed by three washes with lysis buffer and, in cases of subsequent kinase assay, one final wash with kinase buffer (25 mM Tris, pH 7.5, 10 mM MgCl2). […] The kinase reaction was terminated by adding sample buffer and boiling. Kinase activity was determined by immunoblotting for pMEK.

The next experiment has as its target BRAF(V600E/R509H) (Homo sapiens, UniProt P15056, R509H/V600E). Nature of the experiment: ERK signaling in 293H cells expressing the dimerization mutant BRAF(V600E/R509H). The conditions noted are these: 2 μM for 1 hour. Format: cell-based. How it is done:
as §2

A further experiment deals with p61 BRAF(V600E/R509H) (Homo sapiens, UniProt P15056, DEL169-380/R509H/V600E). In words: ERK signaling in 293H cells expressing p61 BRAF(V600E/R509H). The following applies: 2 μM for 1 hour. The format is cell-based. The method, then:
as §2

For experiment [5], the system named is HT-29 cells (colorectal; BRAF(V600E)) expressing NRAS(G12V). Nature of the experiment: MEK/ERK in HT-29 cells transfected with HA-tagged NRAS(G12V). The conditions noted are these: various concentrations, 1 h. Format: cell-based.
Experiment [6] has as its system HT-29 cells (colorectal; BRAF(V600E)) expressing HER2 (V654E). In words: MEK/ERK in HT-29 cells transfected with activated HER2 (V654E). Format: cell-based. The conditions noted are these: various concentrations, 1 h.
Experiment [7] has as its system wild-type (+/+), BRAF−/− or CRAF−/− MEFs. In words: MEK/ERK activation in wild-type, BRAF knockout or CRAF knockout MEFs. Format: cell-based. The following applies: indicated concentrations, 1 h.
Experiment [8] concerns ERK signaling (pMEK, pERK). Nature of the experiment: ERK signaling (pMEK/pERK Western blot) in SKMEL-239 parental cells and PLX4032-resistant clones. (In western blotting, separated proteins are transferred to a membrane and probed.)
Description: Western blotting and receptor tyrosine kinase (RTK) arrays. Western blot analysis was performed as previously described13. The following antibodies were used: p217/p221-MEK (pMEK), p202/p204-ERK (pERK), MEK, ERK, (Cell Signaling), V5 tag (Invitrogen), BRAF, cyclin Flag tag, β-actin (Sigma).
The mark [9] stands for this setting: parental SKMEL-239, 2 μM PLX4032.

Sequence of p61 BRAF(V600E/R509H) (P15056 with tags, fused parts or gaps DEL169-380/R509H/V600E): as the sequence (P15056 with tags, fused parts or gaps DEL169-380/V600E) above, with R297H counted along it
Sequence of BRAF(V600E/R509H) (P15056 whole entry R509H/V600E): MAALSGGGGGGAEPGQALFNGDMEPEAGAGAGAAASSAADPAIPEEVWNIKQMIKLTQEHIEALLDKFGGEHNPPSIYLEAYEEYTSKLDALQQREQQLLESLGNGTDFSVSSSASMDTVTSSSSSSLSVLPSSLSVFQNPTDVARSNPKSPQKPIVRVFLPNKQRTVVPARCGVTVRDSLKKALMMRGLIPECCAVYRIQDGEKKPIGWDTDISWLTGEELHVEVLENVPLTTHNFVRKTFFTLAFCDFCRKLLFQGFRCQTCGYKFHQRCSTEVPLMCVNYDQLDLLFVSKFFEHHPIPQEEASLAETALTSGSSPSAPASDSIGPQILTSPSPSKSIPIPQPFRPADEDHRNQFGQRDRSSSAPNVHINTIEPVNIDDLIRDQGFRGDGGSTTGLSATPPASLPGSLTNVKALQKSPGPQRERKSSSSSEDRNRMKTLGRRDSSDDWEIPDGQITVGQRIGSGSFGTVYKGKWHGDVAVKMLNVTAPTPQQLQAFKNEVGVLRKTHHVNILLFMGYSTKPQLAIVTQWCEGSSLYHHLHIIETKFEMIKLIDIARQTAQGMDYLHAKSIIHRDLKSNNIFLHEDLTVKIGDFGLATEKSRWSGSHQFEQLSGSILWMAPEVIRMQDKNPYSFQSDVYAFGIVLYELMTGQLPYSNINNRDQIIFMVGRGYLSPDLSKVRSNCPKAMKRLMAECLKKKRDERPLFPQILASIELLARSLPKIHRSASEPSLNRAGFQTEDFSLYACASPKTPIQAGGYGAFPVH

Regarding `O=C(NOC[C@H](O)CO)c1ccc(F)c(F)c1Nc1ccc(I)cc1F` [PD032590113], the “sensitivity to the MEK inhibitor” value in experiment [1] is listed as “retained sensitivity”.

Regarding `CCCS(=O)(=O)Nc1ccc(F)c(C(=O)c2c[nH]c3ncc(-c4ccc(Cl)cc4)cc23)c1F` [PLX4032], the results for the “cell death (sub-G1 peak by FACS)” value in the experiment on SKMEL-239 cells (five PLX4032-resistant SKMEL-239 clones) and in the experiment on SKMEL-239 cells (parental SKMEL-239 cells) were “not in the five resistant clones” and “significant induction of cell death; also recorded: induced cell death”, respectively. Further, the cell cycle effect result with SKMEL-239 cells (setting [9]) was “accumulation of cells in G1”. Also, the “sensitivity of ERK signaling (pMEK, pERK)” value on p61 BRAF(V600E) [2] was “resistant; also recorded: insensitive”. The “inhibition of ERK signaling” value at p61 BRAF(V600E) [3] (HT-29 cells expressing p61 BRAF(V600E)) is “failure of PLX4032 to effectively inhibit ERK signaling”; on p61 BRAF(V600E) [3] (parental SKMEL-239 cells expressing p61 BRAF(V600E)), “failure of PLX4032 to effectively inhibit ERK signaling”; against p61 BRAF(V600E/R509H), “inhibited”; in experiment [8] (setting [9]), “effectively inhibits ERK signaling”. Also, the “inhibition of kinase activity in vitro (pMEK Western blot)” value at p61 BRAF(V600E) [4] is given as “can be inhibited in vitro”. For the same molecule, the “sensitivity of ERK signaling” value on BRAF(V600E/R509H) is given as “remained sensitive”. The “sensitivity of MEK/ERK to RAF inhibitor” value in experiment [5] and in [6] was “insensitive” throughout. The MEK/ERK activation entry in [7] is recorded as “MEK/ERK activation does not require BRAF”. In addition, the “sensitivity of ERK signaling to the drug” value in experiment [8] (PLX4032-resistant SKMEL-239 cells) is listed as “decreased sensitivity”. Besides, the “IC50 for pMEK inhibition relative to the parental cell line” value in [8] (SKMEL-239 C3 clone, 1 hour) is on record as “more than 100 fold”. Further, in [8] (SKMEL-239 C5 clone, 1 hour), the “pMEK IC50 relative to the parental clone” value stood at 4.5 fold.
